Results reported in US4956343A, “Control of insects by Roseotoxin B” (priority 1988, dated 1990).
Square brackets hold non-standard residues; d marks the D form. Peptide text beside a SMILES is read from it. dLac(3-vinyl) = C=CC[C@@H](O)C(=O)O; dHica = CC(C)C[C@@H](O)C(=O)O; NMeV = CN[C@H](C(=O)O)C(C)C; NMeA = CN[C@@H](C)C(=O)O; βAla = NCCC(=O)O

Key:
silk worm larvae = details: cited from earlier work
mice [1] = details: intraperitoneal injection; cited from earlier work
mice [2] = experiment: Toxicity to mice by intraperitoneal injection; details: ratio of lethal doses
Heliothis zea = experiment: Insecticidal activity, diet incorporation, neonate corn earworm larvae; type: in vivo; details: 2.5 ppm in diet; for Mortality: neonate larvae fed 1 week; for Wt. reductions: survivors after 1 week
Method: (§1) Insects. Neonate larvae of Heliothis zea and Spodoptera frugiperda were used for all assays. They were obtained from laboratory colonies reared on pinto bean-based diet at 27°±1° C., 40±10% relative humidity, and a 14:10 light:dark photoperiod.
(§2) The diet used to rear the insects was based on a standard pinto bean diet for many species of lepidoptera and contained the following ingredients: 120 g dried pinto beans, 43 g wheat germ, 28 g brewer's yeast, 8 g Vanderzant's vitamin mix, 2.8 g ascorbic acid, 1.75 g methyl paraben, 0.9 g sorbic acid, 12 g agar, 1 ml formaldehyde (38%), 1.5 ml of propionic-phosphoric acid solution (42% propionic acid, 4.2% phosphoric acid), and 550 ml water. All dry diet ingredients (except for the pinto beans) were purchased from U.S. Biochemicals Corp. Before use, the beans were soaked in water until saturated. The agar was added to 250 ml of water and brought to a boil. The other ingredients were blended in a Waring blender until uniformly mixed. The hot agar was added, and blending continued until all ingredients were uniformly mixed.
(§3) The pinto bean-based diet was prepared and added in 5-ml quantities to test tubes. The test tubes were held at 60° C. until chemicals were incorporated to prevent solidification of the diet. The roseotoxin B was added in 125 μl of acetone to the liquid diet upon removal from the water bath to give a final concentration of 250-2.5 ppm. The chemical was incorporated into the diets by blending vigorously with a vortex mixer for 20 sec. Preliminary observations with colored solutions of both water and acetone indicated uniform incorporation by this method. The diets were dispensed into culture plates, and allowed to cool to room temperature. To remove the potentially toxic acetone, the diets were placed in a fume hood for ca. 20 min until slight darkening occurred. The diets were cut into approximately equal sections, and each section was placed into a well of a 24-well immunoassay plate. A single neonate H. zea or S. frugiperda larvae was added to each well. To prevent desiccation of the diet, the plate was covered by a sheet of parafilm, a sheet of cardboard, and the plastic cover. The cover was secured by two rubber bands, and groups of plates were placed in two polyethylene bags held closely by rubber bands. The plates were held under the same conditions used to rear the insects. Mortality was checked at 2, 4, and 7 days, and the surviving larvae were weighed after 7 days. Each chemical set was tested on a total of 40 larvae.
(§4) Mortality values are based on two replicates of ca. 20 insects each, whil
(§5) weight reductions are based on survivors of mortality tests. All chemical
(§6) were incorporated into insect diets, and fed to neonate larvae for 1 week

Spodoptera frugiperda = experiment: Insecticidal activity, diet incorporation, neonate fall armyworm larvae; type: in vivo; details: 2.5 ppm in diet; for Mortality: neonate larvae fed 1 week; for Wt. reductions: survivors after 1 week
Method: as §1, §2, §3, §4, §5, §6

| Structure (SMILES) | Dose causing death by injection (silk worm larvae) [µg/g] | Dose that killed all test mice (mice [1]) [mg/kg] | Mammalian toxicity relative to roseotoxin B (mice [2]) | Mortality (Heliothis zea) [%] | Wt. reductions (Heliothis zea) [%] | Mortality (Spodoptera frugiperda) [%] | Wt. reductions (Spodoptera frugiperda) [%] |
| --- | --- | --- | --- | --- | --- | --- | --- |
| CC[C@H](C)[C@@H]1NC(=O)[C@@H]2CCCN2C(=O)[C@@H](CC(C)C)OC(=O)CCNC(=O)[C@H](C)N(C)C(=O)[C@H](C(C)C)N(C)C1=O [Destruxin B] (cyclo([dHica]PI[NMeV][NMeA][βAla])) | 0.34 | 16.9 | about 10 times |  |  |  |  |
| CCOC(=O)CC(SP(=S)(OC)OC)C(=O)OCC (centres unmarked) [Malathion] |  |  |  | 5.5 | 27 | 30 | 45 |
| CC1(C)C(C=C(Cl)Cl)C1C(=O)OCc1cccc(Oc2ccccc2)c1 (centres unmarked) [Permethrin] |  |  |  | 17 | 81 | 35 | 94 |
| C=CC[C@H]1OC(=O)CCNC(=O)[C@H](C)N(C)C(=O)[C@H](C(C)C)N(C)C(=O)[C@H]([C@@H](C)CC)NC(=O)[C@@H]2CCCN2C1=O [destruxin A] (cyclo([dLac(3-vinyl)]PI[NMeV][NMeA][βAla])) | 0.28 | 1.35 | approximately 100 times |  |  |  |  |
